Broadly, the pEC50 is the negative decadic logarithm of the EC50, by convention in mol/L.

One experiment addresses T1, CRF2R (Homo sapiens, UniProt Q13324).
T1 sequence (Q13324 1-411): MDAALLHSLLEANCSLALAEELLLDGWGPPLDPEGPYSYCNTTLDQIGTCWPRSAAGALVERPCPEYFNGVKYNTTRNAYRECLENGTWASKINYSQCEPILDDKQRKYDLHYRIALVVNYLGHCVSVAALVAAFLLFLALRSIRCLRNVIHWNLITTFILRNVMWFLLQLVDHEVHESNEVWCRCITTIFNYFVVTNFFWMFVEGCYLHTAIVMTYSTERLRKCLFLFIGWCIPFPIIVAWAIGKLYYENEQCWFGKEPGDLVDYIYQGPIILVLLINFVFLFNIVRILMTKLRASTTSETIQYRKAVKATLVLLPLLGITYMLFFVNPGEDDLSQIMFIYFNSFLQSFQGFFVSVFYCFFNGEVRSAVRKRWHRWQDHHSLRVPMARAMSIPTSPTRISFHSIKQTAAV
The experiment can be described thus: CRF2R agonist activity (EC50 and Emax), called comparative CRF binding. It is filed as cell-based. The following applies: CRF2R; read-out: CRF2R EC50. In outline:
(§1)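 cAMP read-out: lysates of CRF1R- or CRF2R-expressing cells assayed after peptide exposure, compared against vehicle-treated cells; signal from any non-target CRFR subtracted as background.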

Another experiment concerns the target T2, CRF1R (Homo sapiens, UniProt P34998).
T2 sequence (P34998 24-415): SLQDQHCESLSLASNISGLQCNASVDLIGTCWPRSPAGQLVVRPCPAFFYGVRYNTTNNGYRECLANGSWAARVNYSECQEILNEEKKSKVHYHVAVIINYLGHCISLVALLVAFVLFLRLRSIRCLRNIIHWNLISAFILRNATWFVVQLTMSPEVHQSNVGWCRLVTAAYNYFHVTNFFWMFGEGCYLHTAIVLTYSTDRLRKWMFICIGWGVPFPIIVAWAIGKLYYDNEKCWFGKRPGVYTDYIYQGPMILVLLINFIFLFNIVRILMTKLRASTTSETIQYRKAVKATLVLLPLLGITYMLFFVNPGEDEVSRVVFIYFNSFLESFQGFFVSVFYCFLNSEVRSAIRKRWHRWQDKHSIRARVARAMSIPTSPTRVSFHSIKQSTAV
Put plainly: CRF1R agonist activity (EC50 and Emax), called comparative CRF binding. It is filed as cell-based. To be noted: CRF1R; read-out: CRF1R EC50. The essentials: as §1

pEC50: −log10 of the molar value. Peptide text beside a SMILES is read from it.

Take `CC[C@H](C)[C@H](NC(=O)[C@H](C)NC(=O)[C@H](CC(N)=O)NC(=O)[C@H](CCC(N)=O)NC(=O)[C@H](CCC(=O)O)NC(=O)[C@H](C)NC(=O)[C@H](CCCNC(=N)N)NC(=O)[C@H](CCC(=O)O)NC(=O)[C@H](CCCNC(=N)N)NC(=O)[C@H](CCC(N)=O)NC(=O)[C@H](CO)NC(=O)[C@H](CCC(N)=O)NC(=O)[C@@H](NC(=O)[C@H](CCCNC(=N)N)NC(=O)[C@H](C)NC(=O)[C@H](CC(C)C)NC(=O)[C@H](CCC(=O)O)NC(=O)[C@H](CC(C)C)NC(=O)[C@H](CC(C)C)NC(=O)[C@@H](NC(=O)[C@H](CCCNC(=N)N)NC(=O)[C@H](CC(C)C)NC(=O)[C@H](CC(C)C)NC(=O)[C@H](Cc1ccc(O)cc1)NC(=O)[C@H](CCC(N)=O)NC(=O)[C@@H]1CCCN1C(=O)[C@H](CC(C)C)NC(=O)[C@H](CC(=O)O)NC(=O)[C@@H](NC(=O)[C@H](CO)NC(=O)[C@H](CC(C)C)NC(=O)[C@H](CO)NC(=O)[C@@H]1CCCN1C(=O)[C@H](CC(N)=O)NC(=O)[C@@H](N)CC(=O)O)[C@@H](C)CC)[C@@H](C)O)[C@@H](C)O)C(=O)N[C@H](C(=O)N[C@@H](Cc1ccccc1)C(=O)N[C@@H](C)C(=O)N[C@@H](CO)C(=O)N[C@H](C(N)=O)C(C)C)[C@@H](C)CC` [compound 339] (H-DNPSLSIDLPQYLLRTLLELARTQSQRERAEQNAIIFASV-NH2): the results for the pEC50 at CRF2R and at CRF1R were at most 7.00 and at most 6.00, respectively.

With `CC[C@H](C)[C@H](NC(=O)[C@H](C)NC(=O)[C@H](CC(N)=O)NC(=O)[C@H](CCC(N)=O)NC(=O)[C@H](CCC(=O)O)NC(=O)[C@H](C)NC(=O)[C@H](CCCNC(=N)N)NC(=O)[C@H](CCC(=O)O)NC(=O)[C@H](CCCNC(=N)N)NC(=O)[C@H](CCC(N)=O)NC(=O)[C@H](CO)NC(=O)[C@H](CCC(N)=O)NC(=O)[C@@H](NC(=O)[C@H](CCCCN)NC(=O)[C@H](CCC(=O)O)NC(=O)[C@H](CC(C)C)NC(=O)[C@H](CCC(=O)O)NC(=O)[C@H](CC(C)C)NC(=O)[C@H](CC(C)C)NC(=O)[C@@H](NC(=O)[C@H](CCCNC(=N)N)NC(=O)[C@H](CC(C)C)NC(=O)[C@H](CC(C)C)NC(=O)[C@H](CCC(N)=O)NC(=O)[C@H](CC(C)C)NC(=O)[C@@H]1CCCN1C(=O)[C@H](CC(C)C)NC(=O)[C@H](CC(=O)O)NC(=O)[C@@H](NC(=O)[C@H](CO)NC(=O)[C@H](CC(C)C)NC(=O)[C@H](CO)NC(=O)[C@@H]1CCCN1C(=O)[C@H](CC(N)=O)NC(=O)[C@@H](N)CC(=O)O)[C@@H](C)CC)[C@@H](C)O)[C@@H](C)O)C(=O)N[C@H](C(=O)N[C@@H](Cc1ccccc1)C(=O)N[C@@H](C)C(=O)N[C@@H](CO)C(=O)N[C@H](C(N)=O)C(C)C)[C@@H](C)CC` [compound 342] (H-DNPSLSIDLPLQLLRTLLELEKTQSQRERAEQNAIIFASV-NH2; N-terminus assumed), the figures for the pEC50 at CRF2R and at CRF1R were 7.69 and at most 6.00, respectively.

In the case of `CC[C@H](C)[C@H](N)C(=O)N[C@H](C(=O)N[C@@H](CC(C)C)C(=O)N[C@@H](CO)C(=O)N[C@@H](CC(C)C)C(=O)N[C@@H](CC(=O)O)C(=O)N[C@H](C(=O)N1CCC[C@H]1C(=O)N[C@H](C(=O)NCC(=O)N[C@@H](CC(C)C)C(=O)N[C@@H](CC(C)C)C(=O)N[C@@H](CCC(N)=O)C(=O)N[C@H](C(=O)N[C@@H](CC(C)C)C(=O)N[C@@H](CC(C)C)C(=O)N[C@@H](CCC(=O)O)C(=O)N[C@@H](CCCCN)C(=O)N[C@@H](C)C(=O)N[C@@H](C)C(=O)N[C@@H](C)C(=O)N[C@@H](CCC(=O)O)C(=O)N[C@@H](C)C(=O)N[C@@H](CCC(=O)O)C(=O)N[C@@H](C)C(=O)N[C@@H](C)C(=O)N[C@@H](C)C(=O)N[C@@H](CCCCN)C(=O)N[C@@H](C)C(=O)N[C@@H](C)C(=O)N[C@@H](CCC(N)=O)C(=O)N[C@@H](CCC(=O)O)C(=O)N[C@@H](CCC(N)=O)C(=O)N[C@H](C(=O)N[C@@H](CC(C)C)C(=O)N[C@@H](C)C(=O)N[C@@H](Cc1c[nH]cn1)C(=O)N[C@H](C(N)=O)C(C)C)[C@@H](C)CC)[C@@H](C)CC)[C@@H](C)CC)C(C)C)C(C)C` [compound 366] (H-IVLSLDVPIGLLQILLEKAAAEAEAAAKAAQEQILAHV-NH2), the pEC50 was at most 7.00 at CRF2R and at most 6.00 at CRF1R.
